Each structure is given as a SMILES string. Activity calls are given as the source filed them.

This passage reports EC50, IC50 and AC50 results from ChEMBL document CHEMBL1201862, “PubChem BioAssay data set” (2004).

Test [1] deals with HEK293. Briefly: inhibition of NOD1-driven NF-kB reporter – cell-based, luminescence, uHTS, primary screen (AID 1578). It is filed as functional. The following applies: Homo sapiens.
Test [2] relates to HEK293. Put plainly: cells. It is filed as functional, cell-based. The following applies: Homo sapiens.
The target in test [3] is T1, Heat shock factor protein 1 (Mus musculus, UniProt P38532).
T1 sequence (P38532 whole entry): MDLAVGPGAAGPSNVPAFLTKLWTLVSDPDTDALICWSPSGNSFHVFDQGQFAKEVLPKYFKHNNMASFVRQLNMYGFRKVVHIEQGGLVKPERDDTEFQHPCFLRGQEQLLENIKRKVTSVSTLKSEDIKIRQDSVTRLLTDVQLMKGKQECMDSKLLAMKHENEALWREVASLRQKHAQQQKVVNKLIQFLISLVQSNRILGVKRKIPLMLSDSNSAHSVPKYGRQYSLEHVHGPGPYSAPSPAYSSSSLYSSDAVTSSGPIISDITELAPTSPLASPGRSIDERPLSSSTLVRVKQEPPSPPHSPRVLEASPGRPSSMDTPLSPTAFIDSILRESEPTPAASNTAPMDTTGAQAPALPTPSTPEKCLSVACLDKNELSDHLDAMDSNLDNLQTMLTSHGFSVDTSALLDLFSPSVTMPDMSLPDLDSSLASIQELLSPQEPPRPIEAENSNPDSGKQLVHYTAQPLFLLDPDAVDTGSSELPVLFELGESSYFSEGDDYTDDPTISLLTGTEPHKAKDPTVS
Put plainly: decrease of HSF1-responsive luciferase luminescence – cell-based, NIH3T3, dose retest, confirmation (AID 2382).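 Also: NIH3T3 fibroblasts with HSF1-driven luciferase reporter stressed by proteasome inhibitor MG132; luminescence from HSF1-driven luciferase expression after 8 hours of MG132 stress.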 It is filed as functional.

Test [4] has as its system HEK293. Briefly: cells. The following applies: Homo sapiens. It is filed as functional, cell-based. The source holds these as a separate data set.
The target of test [5] is Nucleotide-binding oligomerization domain-containing protein 2 (Homo sapiens, UniProt Q9HC29). Put plainly: inhibition of NOD2-driven NF-kB reporter – cell-based, luminescence, uHTS, HEK293 (AID 1566). It is filed as functional.
For test [6], the system named is HEK293. Briefly: NOD2 signaling inhibitors in MDP-stimulated cells, cell-based, uHTS, luminescence (AID 2001). Type of test: functional. The following applies: Homo sapiens.
Test [7] has as its system HEK293. Put plainly: cells. Type of test: functional, cell-based. The following applies: Homo sapiens. This is another data set of the same source.
Test [8] has as its target T2, Microphthalmia-associated transcription factor (Homo sapiens, UniProt O75030).
T2 sequence (O75030 whole entry): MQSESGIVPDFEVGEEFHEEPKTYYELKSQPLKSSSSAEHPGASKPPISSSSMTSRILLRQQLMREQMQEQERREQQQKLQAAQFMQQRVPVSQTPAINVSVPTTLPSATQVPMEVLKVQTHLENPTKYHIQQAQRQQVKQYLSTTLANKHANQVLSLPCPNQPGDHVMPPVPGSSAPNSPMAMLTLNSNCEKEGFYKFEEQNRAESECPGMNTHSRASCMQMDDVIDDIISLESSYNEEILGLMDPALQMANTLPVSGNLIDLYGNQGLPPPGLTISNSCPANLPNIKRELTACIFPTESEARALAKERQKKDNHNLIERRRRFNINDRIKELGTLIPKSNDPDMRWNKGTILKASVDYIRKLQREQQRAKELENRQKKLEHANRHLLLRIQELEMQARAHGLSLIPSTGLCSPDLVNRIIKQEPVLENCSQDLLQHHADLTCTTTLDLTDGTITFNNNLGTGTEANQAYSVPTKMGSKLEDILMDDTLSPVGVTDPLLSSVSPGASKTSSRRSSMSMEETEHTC
Put plainly: reducers of TRPM1 reporter luminescence, concentration series – cell-based, SK-MEL-5, cherry-picked, set 3, MITF inhibitor project, dose response (AID 493073).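 Also: SK-MEL-5 melanoma cells with luciferase driven by the MITF target TRPM1 promoter.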 Type of test: functional.

Test [9] concerns the target Photoreceptor-specific nuclear receptor (Homo sapiens, UniProt Q9Y5X4). It is filed as functional, cell-based.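 Also: CHO-S cells with Gal4-NCOR and VP16-NR2E3 two-hybrid luciferase reporter.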
A short description of test [10]: A549 cell cytotoxicity, dose response, cytotoxicity control, plate reader, cherry-pick, antagonist series (AID 743412). Type of test: functional, cell-based.
Test [11] can be described thus: toxicity toward HepG2 liver cells – cell-based, plate reader, cherry-pick, antagonist series, cytotoxicity control, dose response (AID 743416). It is filed as functional.
Test [12] is described as follows: blockers of bursicon-stimulated LGR2 cAMP reporter – cell-based, HEK293, CRE-luciferase reporter, cherry pick, set 2, dose response (AID 743343).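 Also: transfected cells were stimulated with diluted bursicon conditioned medium after compound addition.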 It is filed as functional.
Test [13] is described as follows: blockade of melanocortin 4 receptor signaling – cell-based, plate reader, cherry pick, counter-screen for LGR2 antagonist project, dose response (AID 743444).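 Also: transfected HEK 293 cells stimulated with alpha-MSH peptide; potency of inhibitors of the alpha-MSH evoked signal.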 Type of test: functional.
Test [14] in a line: viability loss in HEK293 cells – cell-based, plate reader, cherry-picked samples, cytotoxicity control, dose response (AID 743446). Type of test: functional.
The test system of another test is INS1. Put plainly: INS-1E survival protection against cytokine death – cell-based, luminescence, retest, dose response (AID 449756).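 Also: cell death triggered by IL-1 beta plus TNF-alpha plus IFN-gamma mixture; protective hits raise ATP signal compared with cytokine alone wells.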 Type of test: functional. The following applies: Rattus norvegicus.
A short description of test [15]: reduction of Shn3 3'UTR-driven luciferase in osteoblasts – cell-based, Clone20 osteoblasts, firefly luciferase, cherry-picked, dose response (AID 624132).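 Also: firefly luciferase luminescence from reporter carrying the Shn3 3'UTR in osteoblasts.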 It is filed as functional.
A short description of test [16]: loss of viability in HepG2 cells – cell-based, CellTiter-Glo, cherry-picked, cytotoxicity control for Shn3 inhibitor project, dose response (AID 624134). It is filed as functional.
Test [17] concerns the target T3, COUP transcription factor 2 (Homo sapiens, UniProt P24468).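 Also: HEK293 cells transiently cotransfected with COUP-TFII expression vector and reporter; luciferase reporter luminescence driven by COUP-TFII from the pX2-168 reporter plasmid.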
T3 sequence (P24468 whole entry): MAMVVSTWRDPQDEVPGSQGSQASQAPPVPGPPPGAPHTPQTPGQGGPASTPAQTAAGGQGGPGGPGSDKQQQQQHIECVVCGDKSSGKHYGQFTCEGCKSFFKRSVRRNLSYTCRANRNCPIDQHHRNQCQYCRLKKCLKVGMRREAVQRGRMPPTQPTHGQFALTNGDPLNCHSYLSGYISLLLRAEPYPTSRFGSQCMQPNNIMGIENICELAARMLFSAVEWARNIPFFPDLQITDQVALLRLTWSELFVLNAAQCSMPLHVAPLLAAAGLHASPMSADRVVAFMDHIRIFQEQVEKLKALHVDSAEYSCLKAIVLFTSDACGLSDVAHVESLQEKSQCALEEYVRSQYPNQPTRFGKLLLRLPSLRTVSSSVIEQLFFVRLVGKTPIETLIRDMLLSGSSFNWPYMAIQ
Put plainly: Luminescence-based cell-based high throughput dose response assay to identify inhibitors of COUP-TFII (NR2F2). It is filed as functional.

Test [18] can be described thus: Shn3 3'UTR reporter signal decrease – cell-based, Clone20 osteoblasts, firefly luciferase, cherry-pick, set 2, Schnurri-3 inhibitor project, dose response (AID 720490).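 Also: actives lower the luminescence signal as inhibitors.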 Type of test: functional.

Chain of Nucleotide-binding oligomerization domain-containing protein 2 (Q9HC29 whole entry, the tested form may be a part): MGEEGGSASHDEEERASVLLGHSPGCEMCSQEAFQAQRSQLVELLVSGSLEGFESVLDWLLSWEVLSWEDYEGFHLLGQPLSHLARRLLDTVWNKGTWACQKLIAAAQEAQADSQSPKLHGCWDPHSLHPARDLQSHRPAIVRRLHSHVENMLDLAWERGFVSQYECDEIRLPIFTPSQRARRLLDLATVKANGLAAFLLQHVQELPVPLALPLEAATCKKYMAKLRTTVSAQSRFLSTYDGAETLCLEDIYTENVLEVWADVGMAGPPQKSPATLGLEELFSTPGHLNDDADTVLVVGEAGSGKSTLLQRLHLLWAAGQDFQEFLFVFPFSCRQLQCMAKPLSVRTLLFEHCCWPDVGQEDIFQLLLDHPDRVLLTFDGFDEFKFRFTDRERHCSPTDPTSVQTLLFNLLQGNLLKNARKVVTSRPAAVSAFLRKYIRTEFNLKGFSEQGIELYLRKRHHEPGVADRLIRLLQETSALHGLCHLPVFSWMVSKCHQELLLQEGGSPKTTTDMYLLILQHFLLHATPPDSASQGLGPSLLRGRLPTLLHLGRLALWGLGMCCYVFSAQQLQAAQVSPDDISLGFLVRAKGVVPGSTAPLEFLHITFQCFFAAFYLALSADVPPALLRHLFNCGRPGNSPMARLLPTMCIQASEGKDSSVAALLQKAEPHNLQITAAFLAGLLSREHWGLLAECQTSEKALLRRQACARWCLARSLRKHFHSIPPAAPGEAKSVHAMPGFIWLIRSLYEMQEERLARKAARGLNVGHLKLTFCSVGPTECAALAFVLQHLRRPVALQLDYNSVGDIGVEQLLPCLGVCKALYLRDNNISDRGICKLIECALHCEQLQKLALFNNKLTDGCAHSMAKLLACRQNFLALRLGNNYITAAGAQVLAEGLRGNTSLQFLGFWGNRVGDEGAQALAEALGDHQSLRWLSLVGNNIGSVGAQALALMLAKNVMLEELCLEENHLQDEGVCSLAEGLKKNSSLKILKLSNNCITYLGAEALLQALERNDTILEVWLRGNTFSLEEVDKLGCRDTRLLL
Chain of Photoreceptor-specific nuclear receptor (Q9Y5X4 whole entry, the tested form may be a part): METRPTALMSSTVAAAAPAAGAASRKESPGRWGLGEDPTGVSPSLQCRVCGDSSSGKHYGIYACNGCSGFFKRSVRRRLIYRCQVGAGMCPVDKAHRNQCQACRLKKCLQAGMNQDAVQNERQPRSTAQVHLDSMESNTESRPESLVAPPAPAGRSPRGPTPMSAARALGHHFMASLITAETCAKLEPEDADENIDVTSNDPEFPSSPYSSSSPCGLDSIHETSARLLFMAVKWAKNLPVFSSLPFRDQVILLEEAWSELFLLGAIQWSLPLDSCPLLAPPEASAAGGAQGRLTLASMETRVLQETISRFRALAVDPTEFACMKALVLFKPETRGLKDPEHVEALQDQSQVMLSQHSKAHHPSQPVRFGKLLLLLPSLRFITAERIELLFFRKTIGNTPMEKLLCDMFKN

Take `Cc1cc(C)c(C#N)c(SCc2nnc(-c3ccccc3)o2)n1`: the half-maximal effective concentration (EC50) was 10.5 µM (active) in the test with HEK293 [1], < 0.16 µM (active) in test [3] and < 0.31 µM (inactive) in test [5]. The concentration for half-maximal inhibition (IC50) with HEK293 [2] is 6.41 µM (active); in the test with HEK293 [4], > 20 µM (inactive); with HEK293 [6], 12.6 µM (inactive); in the test on HEK293 [7], > 20 µM (inactive); in test [9] it was 35.7 µM (inactive). Further, the concentration at half-maximal activity (AC50) in [8] was 0.024 µM (active); in [10], > 52 µM (inactive); in test [11], > 52 µM (inactive); in test [12] it was 0.281 µM (active); in [13], 0.321 µM (active); in [14], > 52 µM (inactive).

With `Cc1cc(S(=O)(=O)NCc2ccncc2)c(C)cc1Br`, the values for the EC50 (with HEK293 [1]; in test [5]) were 4.2 µM (active) and 5.82 µM (active), respectively. Further, the half-maximal inhibitory concentration (IC50) with HEK293 [2] was 9.24 µM (active); with HEK293 [4], > 20 µM (inactive); with HEK293 [6], 17.9 µM (inactive); in the test with HEK293 [7], > 20 µM (inactive); in test [17], 6.41 µM (active). Further, the AC50 with INS1 is 4.42 µM (active); in test [15], 1.23 µM (active); in test [16], 41.1 µM (active); in [18], 1.02 µM (active).
